Assay results published in patent publication US20100305098A1, “METHODS OF USE” (priority 2007, published 2010).

What was measured:
BLT1 = molecular target: T1, BLT1 (Homo sapiens, UniProt Q15722); experiment: FLIPR functional screen; assay type: cell-based; conditions: antagonist mode
T1 construct: Millipore

PAF = molecular target: T2, PAF (Homo sapiens, UniProt P25105); experiment: FLIPR functional screen; assay type: cell-based; conditions: antagonist mode
T2 construct: Millipore

GPR54 = molecular target: T3, GPR54 (Homo sapiens, UniProt Q969F8); experiment: FLIPR functional screen; assay type: cell-based; conditions: antagonist mode
T3 construct: Millipore

FP = molecular target: T4, FP (Homo sapiens, UniProt P43088); experiment: FLIPR functional screen; assay type: cell-based; conditions: antagonist mode
T4 construct: Millipore

SST4 = molecular target: T5, SST4 (Homo sapiens, UniProt P31391); experiment: FLIPR functional screen; assay type: cell-based; conditions: antagonist mode
T5 construct: Millipore

EP3 = molecular target: T6, EP3 (Homo sapiens, UniProt P43115); experiment: FLIPR functional screen; assay type: cell-based; conditions: antagonist mode
T6 construct: Millipore

M1 = molecular target: T7, M1 (Homo sapiens, UniProt P11229); experiment: FLIPR functional screen; assay type: cell-based; conditions: antagonist mode
T7 construct: Millipore

CXCR4 = molecular target: T8, CXCR4 (Homo sapiens, UniProt P61073); experiment: FLIPR functional screen; assay type: cell-based; conditions: antagonist mode
T8 construct: Millipore

CRF2 = molecular target: T9, CRF2 (Homo sapiens, UniProt Q13324); experiment: FLIPR functional screen; assay type: cell-based; conditions: antagonist mode
T9 construct: Millipore

5-HT2B = molecular target: T10, 5-HT2B (Homo sapiens, UniProt P41595); experiment: FLIPR functional screen; assay type: cell-based; conditions: antagonist mode
T10 construct: purchased Millipore (outsourced screen)

GCGR = molecular target: T11, GCGR (Homo sapiens, UniProt P47871); experiment: FLIPR functional screen; assay type: cell-based; conditions: antagonist mode
T11 construct: Millipore

LPA1 = molecular target: T12, LPA1 (Homo sapiens, UniProt Q92633); experiment: FLIPR functional screen; assay type: cell-based; conditions: antagonist mode
T12 construct: Millipore

CHEMR23 = molecular target: T13, CHEMR23 (Homo sapiens, UniProt Q99788); experiment: FLIPR functional screen; assay type: cell-based; conditions: antagonist mode
T13 construct: Millipore

5-HT2C = molecular target: T14, 5-HT2C (Homo sapiens, UniProt P28335); experiment: FLIPR functional screen; assay type: cell-based; conditions: antagonist mode
T14 construct: purchased Millipore (outsourced screen)

A1 = molecular target: T15, A1 (Homo sapiens, UniProt P30542); experiment: FLIPR functional screen; assay type: cell-based; conditions: antagonist mode
T15 construct: purchased Millipore (outsourced screen)

Prostanoid DP = molecular target: T16, Prostanoid DP (Homo sapiens, UniProt Q13258); experiment: Competitive radioligand binding (MDS Pharma)
T16 construct: purchased MDS Pharma (outsourced assay)

PTH1 = molecular target: T17, PTH1 (Homo sapiens, UniProt Q03431); experiment: FLIPR functional screen; assay type: cell-based; conditions: antagonist mode
T17 construct: Millipore

S1P5 = molecular target: T18, S1P5 (Homo sapiens, UniProt Q9H228); experiment: FLIPR functional screen; assay type: cell-based; conditions: antagonist mode
T18 construct: Millipore

OPRK1 = molecular target: T19, OPRK1 (Homo sapiens, UniProt P41145); experiment: FLIPR functional screen; assay type: cell-based; conditions: antagonist mode
T19 construct: Millipore

C3AR = molecular target: T20, C3AR (Homo sapiens, UniProt Q16581); experiment: FLIPR functional screen; assay type: cell-based; conditions: antagonist mode
T20 construct: Millipore

P2Y1 = molecular target: T21, P2Y1 (Homo sapiens, UniProt P47900); experiment: FLIPR functional screen; assay type: cell-based; conditions: antagonist mode
T21 construct: Millipore

EP4 = molecular target: T22, EP4 (Homo sapiens, UniProt P35408); experiment: PGE2 induced CRE-PLAP reporter assay in SE302 cells; assay type: cell-based; conditions: read-out: IC50 against PGE2 induced CRE-PLAP reporter activity
T22 construct: SE302 cells that express endogenous EP4; endogenous in cells; host or cells: SE302 cells
Description: CRE-PLAP reporter assay. SE302 cells that express endogenous EP4 were stimulated with PGE2 in the presence or absence of ER-819762 for overnight, and PLAP activity was measured.

CYSLT2 = molecular target: T23, CYSLT2 (Homo sapiens, UniProt Q9NS75); experiment: FLIPR functional screen; assay type: cell-based; conditions: antagonist mode
T23 construct: Millipore

Leukotriene, BLT (LTB4) = molecular target: T24, Leukotriene, BLT (LTB4) (Homo sapiens, UniProt Q15722); experiment: Competitive radioligand binding (MDS Pharma)
T24 construct: purchased MDS Pharma (outsourced assay) 250510

LPA3 = molecular target: T25, LPA3 (Homo sapiens, UniProt Q9UBY5); experiment: FLIPR functional screen; assay type: cell-based; conditions: antagonist mode
T25 construct: Millipore

Y2 = molecular target: T26, Y2 (Homo sapiens, UniProt P49146); experiment: FLIPR functional screen; assay type: cell-based; conditions: antagonist mode
T26 construct: Millipore

GPR43 = molecular target: T27, GPR43 (Homo sapiens, UniProt O15552); experiment: FLIPR functional screen; assay type: cell-based; conditions: antagonist mode
T27 construct: Millipore

PK1 = molecular target: T28, PK1 (Homo sapiens, UniProt Q8TCW9); experiment: FLIPR functional screen; assay type: cell-based; conditions: PK-1, antagonist mode
T28 construct: Millipore

CAS = molecular target: T29, CAS (Homo sapiens, UniProt P41180); experiment: FLIPR functional screen; assay type: cell-based; conditions: antagonist mode
T29 construct: Millipore

BB1 = molecular target: T30, BB1 (Homo sapiens, UniProt P28336); experiment: FLIPR functional screen; assay type: cell-based; conditions: antagonist mode
T30 construct: Millipore

PK2 = molecular target: T31, PK2 (Homo sapiens, UniProt Q8NFJ6); experiment: FLIPR functional screen; assay type: cell-based; conditions: antagonist mode
T31 construct: Millipore

M4 = molecular target: T32, M4 (Homo sapiens, UniProt P08173); experiment: FLIPR functional screen; assay type: cell-based; conditions: antagonist mode
T32 construct: Millipore

EP1 = molecular target: T33, EP1 (Homo sapiens, UniProt P34995); experiment: FLIPR functional screen; assay type: cell-based; conditions: antagonist mode
T33 construct: Millipore

CX3CR1 = molecular target: T34, CX3CR1 (Homo sapiens, UniProt P49238); experiment: FLIPR functional screen; assay type: cell-based; conditions: antagonist mode
T34 construct: Millipore

T16 sequence (Q13258 whole entry): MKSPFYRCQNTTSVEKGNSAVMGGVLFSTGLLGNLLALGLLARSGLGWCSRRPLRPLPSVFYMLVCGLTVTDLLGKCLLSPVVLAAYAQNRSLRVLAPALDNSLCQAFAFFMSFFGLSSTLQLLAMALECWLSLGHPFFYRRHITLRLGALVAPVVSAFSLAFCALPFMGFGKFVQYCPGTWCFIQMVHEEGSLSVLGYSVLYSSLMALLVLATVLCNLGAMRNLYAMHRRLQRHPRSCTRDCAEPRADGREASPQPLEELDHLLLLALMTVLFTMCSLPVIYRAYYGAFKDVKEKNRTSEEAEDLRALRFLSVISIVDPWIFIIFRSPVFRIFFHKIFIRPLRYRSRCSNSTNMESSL
T24 sequence (Q15722 whole entry): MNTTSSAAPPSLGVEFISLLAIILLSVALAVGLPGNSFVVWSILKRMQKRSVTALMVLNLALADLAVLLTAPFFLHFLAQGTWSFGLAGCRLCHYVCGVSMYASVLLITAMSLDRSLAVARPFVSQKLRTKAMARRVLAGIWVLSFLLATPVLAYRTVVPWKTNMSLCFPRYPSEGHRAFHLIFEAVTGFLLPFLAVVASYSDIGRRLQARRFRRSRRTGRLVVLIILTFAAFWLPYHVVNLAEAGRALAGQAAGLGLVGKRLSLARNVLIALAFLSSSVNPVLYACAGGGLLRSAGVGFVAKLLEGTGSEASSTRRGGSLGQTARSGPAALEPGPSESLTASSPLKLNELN
T9 sequence (Q13324 whole entry): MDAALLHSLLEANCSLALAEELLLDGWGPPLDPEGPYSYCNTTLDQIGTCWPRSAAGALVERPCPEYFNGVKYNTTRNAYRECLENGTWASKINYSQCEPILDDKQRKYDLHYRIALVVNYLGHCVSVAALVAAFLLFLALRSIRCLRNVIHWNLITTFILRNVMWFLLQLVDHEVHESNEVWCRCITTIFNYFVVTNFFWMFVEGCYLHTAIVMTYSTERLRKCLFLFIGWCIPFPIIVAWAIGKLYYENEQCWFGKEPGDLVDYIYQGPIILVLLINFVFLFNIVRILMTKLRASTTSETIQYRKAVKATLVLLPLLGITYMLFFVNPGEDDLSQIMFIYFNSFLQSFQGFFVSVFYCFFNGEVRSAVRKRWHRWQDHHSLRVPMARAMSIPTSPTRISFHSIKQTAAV
T25 sequence (Q9UBY5 whole entry, species assumed): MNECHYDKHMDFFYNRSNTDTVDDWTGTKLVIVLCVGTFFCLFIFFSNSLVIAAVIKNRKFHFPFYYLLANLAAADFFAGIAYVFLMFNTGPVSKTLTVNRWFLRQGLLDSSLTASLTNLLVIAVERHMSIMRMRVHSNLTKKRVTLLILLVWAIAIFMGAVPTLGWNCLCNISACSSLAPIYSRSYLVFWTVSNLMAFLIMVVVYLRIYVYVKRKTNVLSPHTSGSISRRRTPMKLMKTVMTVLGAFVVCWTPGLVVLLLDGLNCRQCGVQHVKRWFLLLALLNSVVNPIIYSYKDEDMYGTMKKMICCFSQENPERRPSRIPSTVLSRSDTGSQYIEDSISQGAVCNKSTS
T28 sequence (Q8TCW9 whole entry): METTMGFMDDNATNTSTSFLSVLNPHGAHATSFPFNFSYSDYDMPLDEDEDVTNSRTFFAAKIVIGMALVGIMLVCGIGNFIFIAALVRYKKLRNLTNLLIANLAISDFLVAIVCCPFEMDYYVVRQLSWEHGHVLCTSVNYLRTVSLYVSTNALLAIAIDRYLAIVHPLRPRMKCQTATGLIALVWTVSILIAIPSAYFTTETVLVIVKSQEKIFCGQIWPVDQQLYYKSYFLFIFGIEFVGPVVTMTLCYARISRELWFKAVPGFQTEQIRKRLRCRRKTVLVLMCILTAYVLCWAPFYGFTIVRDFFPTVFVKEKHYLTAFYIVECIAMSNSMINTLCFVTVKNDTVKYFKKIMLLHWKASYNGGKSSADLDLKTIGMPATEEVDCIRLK
T19 sequence (P41145 whole entry, species assumed): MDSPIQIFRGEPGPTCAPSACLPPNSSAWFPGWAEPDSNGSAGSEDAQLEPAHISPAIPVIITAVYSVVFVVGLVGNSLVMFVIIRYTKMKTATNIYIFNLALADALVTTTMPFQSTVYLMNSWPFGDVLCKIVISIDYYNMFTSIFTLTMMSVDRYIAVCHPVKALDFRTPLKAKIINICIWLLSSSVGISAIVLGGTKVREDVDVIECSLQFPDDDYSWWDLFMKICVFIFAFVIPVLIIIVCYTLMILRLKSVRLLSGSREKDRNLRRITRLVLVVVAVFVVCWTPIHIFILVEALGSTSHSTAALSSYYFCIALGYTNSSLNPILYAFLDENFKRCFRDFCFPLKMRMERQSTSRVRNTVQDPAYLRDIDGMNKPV
T14 sequence (P28335 33-458): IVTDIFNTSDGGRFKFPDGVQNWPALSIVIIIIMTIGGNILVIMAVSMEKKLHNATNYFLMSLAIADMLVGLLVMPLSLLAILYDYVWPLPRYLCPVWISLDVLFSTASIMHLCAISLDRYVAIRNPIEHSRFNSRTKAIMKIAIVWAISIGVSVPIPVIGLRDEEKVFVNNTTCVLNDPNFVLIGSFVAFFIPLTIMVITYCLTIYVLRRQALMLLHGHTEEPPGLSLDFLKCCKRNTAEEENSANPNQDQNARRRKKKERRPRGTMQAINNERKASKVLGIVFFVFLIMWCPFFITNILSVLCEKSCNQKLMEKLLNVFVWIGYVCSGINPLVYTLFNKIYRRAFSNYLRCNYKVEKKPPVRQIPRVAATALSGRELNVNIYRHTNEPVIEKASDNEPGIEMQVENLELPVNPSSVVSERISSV
T8 sequence (P61073 whole entry, species assumed): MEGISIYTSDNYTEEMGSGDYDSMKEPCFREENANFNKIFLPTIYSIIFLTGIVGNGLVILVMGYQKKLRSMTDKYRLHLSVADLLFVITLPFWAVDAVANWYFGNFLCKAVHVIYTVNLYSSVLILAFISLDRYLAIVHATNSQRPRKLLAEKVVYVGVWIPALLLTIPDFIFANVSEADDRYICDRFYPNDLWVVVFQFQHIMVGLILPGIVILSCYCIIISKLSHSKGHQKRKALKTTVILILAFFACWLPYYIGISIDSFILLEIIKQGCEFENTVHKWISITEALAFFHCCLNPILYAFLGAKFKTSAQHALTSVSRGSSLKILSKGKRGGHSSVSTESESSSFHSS
T15 sequence (P30542 whole entry): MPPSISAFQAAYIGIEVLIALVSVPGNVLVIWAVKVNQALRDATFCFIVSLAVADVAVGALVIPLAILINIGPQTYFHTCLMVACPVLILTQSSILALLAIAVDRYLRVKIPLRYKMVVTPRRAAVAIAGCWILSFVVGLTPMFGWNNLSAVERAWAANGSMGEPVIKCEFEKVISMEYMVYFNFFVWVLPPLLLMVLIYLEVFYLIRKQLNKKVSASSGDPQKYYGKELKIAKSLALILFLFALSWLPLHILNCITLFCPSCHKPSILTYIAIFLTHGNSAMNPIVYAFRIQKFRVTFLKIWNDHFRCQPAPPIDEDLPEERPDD
T4 sequence (P43088 whole entry): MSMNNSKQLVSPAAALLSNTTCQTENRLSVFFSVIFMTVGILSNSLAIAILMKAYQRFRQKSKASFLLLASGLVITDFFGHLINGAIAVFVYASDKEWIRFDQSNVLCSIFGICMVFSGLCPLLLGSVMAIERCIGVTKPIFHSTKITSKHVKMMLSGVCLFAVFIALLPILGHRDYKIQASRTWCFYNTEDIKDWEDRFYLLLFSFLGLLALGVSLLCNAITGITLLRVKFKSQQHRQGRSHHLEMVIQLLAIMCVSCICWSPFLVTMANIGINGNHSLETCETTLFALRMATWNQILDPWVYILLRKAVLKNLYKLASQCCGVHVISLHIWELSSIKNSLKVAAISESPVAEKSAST
T5 sequence (P31391 whole entry, species assumed): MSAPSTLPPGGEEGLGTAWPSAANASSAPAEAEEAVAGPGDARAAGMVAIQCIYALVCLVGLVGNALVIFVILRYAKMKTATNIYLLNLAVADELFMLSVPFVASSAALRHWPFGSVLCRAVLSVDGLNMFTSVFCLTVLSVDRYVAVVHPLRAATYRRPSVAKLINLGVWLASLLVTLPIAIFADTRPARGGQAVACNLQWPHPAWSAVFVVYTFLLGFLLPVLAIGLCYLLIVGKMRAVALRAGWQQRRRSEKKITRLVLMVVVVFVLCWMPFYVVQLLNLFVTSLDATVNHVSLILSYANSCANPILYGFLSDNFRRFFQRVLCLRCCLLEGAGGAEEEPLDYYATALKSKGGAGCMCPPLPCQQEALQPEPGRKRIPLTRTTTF
T20 sequence (Q16581 whole entry, species assumed): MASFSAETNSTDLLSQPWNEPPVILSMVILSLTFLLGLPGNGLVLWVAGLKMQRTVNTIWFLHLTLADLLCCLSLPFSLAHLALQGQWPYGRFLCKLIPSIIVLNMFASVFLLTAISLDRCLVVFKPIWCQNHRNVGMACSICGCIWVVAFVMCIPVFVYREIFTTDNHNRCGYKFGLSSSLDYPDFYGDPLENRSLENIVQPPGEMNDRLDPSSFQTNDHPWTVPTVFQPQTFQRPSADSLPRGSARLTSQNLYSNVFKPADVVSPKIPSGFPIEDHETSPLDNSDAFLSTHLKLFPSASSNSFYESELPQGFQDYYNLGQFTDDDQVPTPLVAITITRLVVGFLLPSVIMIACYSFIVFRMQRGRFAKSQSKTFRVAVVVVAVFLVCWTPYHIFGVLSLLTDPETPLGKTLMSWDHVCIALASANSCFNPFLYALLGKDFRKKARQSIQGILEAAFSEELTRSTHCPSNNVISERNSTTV
T1 sequence (Q15722 whole entry, species assumed): as the sequence (Q15722 whole entry) above

In the case of `CCN1C(=O)N2Cc3cc(OC)cc(OC)c3[C@@H](C)C=C2C12CCN(Cc1cccn1C)CC2` [ER-819924-01], the inhibition at 1 µM (BLT1) is reported as 2.2%, the inhibition at 1 µM (PAF) is reported as 5.4% and the inhibition at 1 µM (GPR54) is reported as -0.4%. For the same molecule, the inhibition at 1 µM (FP) was 14%, the inhibition at 1 µM (SST4) was -2.8% and the inhibition at 1 µM (EP3) was 7.8%. The inhibition at 1 µM (M1) was 3.6%, the inhibition at 1 µM (CXCR4) was -11.8% and the inhibition at 1 µM (CRF2) was -7%. For the same molecule, the inhibition at 1 µM (5-HT2B) was 11.3%, the inhibition at 1 µM (GCGR) was 8.6% and the inhibition at 1 µM (LPA1) was 8%. It also gave an inhibition at 1 µM (CHEMR23) of -3.2%, an inhibition at 1 µM (5-HT2C) of -12.5% and an inhibition at 1 µM (A1) of 2.2%. For the same molecule, the “% INHIBITION” value (Prostanoid DP; CONC. 0.1 μm) was 0%, the “% INHIBITION” value (Prostanoid DP; CONC. 1 μm) was 13% and the inhibition at 1 µM (PTH1) was 3.9%. For the same molecule, the inhibition at 1 µM (S1P5) was -7.4%, the inhibition at 1 µM (OPRK1) was 6.2% and the inhibition at 1 µM (C3AR) was -8.2%. It also gave an inhibition at 1 µM (P2Y1) of -37.5%, an IC50 (EP4) of 28 nM and an inhibition at 1 µM (CYSLT2) of 4.5%. The “% INHIBITION” value (Leukotriene, BLT (LTB4); CONC. 0.1 μm) was −12%, the “% INHIBITION” value (Leukotriene, BLT (LTB4); CONC. 1 μm) was −11% and the inhibition at 1 µM (LPA3) was 9.6%. For the same molecule, the inhibition at 1 µM (Y2) was -1%, the inhibition at 1 µM (GPR43) was 10.6% and the inhibition at 1 µM (PK1) was -4.3%. For the same molecule, the inhibition at 1 µM (CAS) was 7.2%, the inhibition at 1 µM (BB1) was 7.1% and the inhibition at 1 µM (PK2) was -3.8%. The inhibition at 1 µM (M4) was 10.5%, the inhibition at 1 µM (EP1) was -2% and the inhibition at 1 µM (CX3CR1) was 1.7%.
